Measured values from patent US6903132B2, “Non-peptide GnRH agents, pharmaceutical compositions and methods for their use” (Agouron Pharmaceuticals, Inc., priority 2002, dated 2005).
Where “and” joins values, the source holds several entries; their conditions need not be identical. Equal values may be shown once.

How the values were obtained:
[1] = In vitro metabolism: disappearance of parent compound in liver microsomes (female rat); format: in vitro ADME; conditions: 5 uM compound, 0.5 mg/ml microsomal protein, 2 mM NADPH, 30 minutes at 37° C.
Experimental: (§1) Human, rat, dog, and monkey liver microsomes are isolated by differential centrifugation. Specimens of human liver were obtained from the International Institute for the Advancement of Medicine (Scranton, Pa.). The disappearance of the parent compound is studied in a mixture containing 5 uM compound, 0.5 mg/ml microsomal protein, and 2 mM NADPH in 50 mM K Phosphate buffer, pH 7.4. Samples are incubated for 30 minutes at 37° C. The reaction is terminated by the addition of acetonitrile and compounds analyzed by LC-MS as described above.

[2] = In vitro metabolism: disappearance of parent compound in liver microsomes; format: in vitro ADME; conditions: human liver microsomes; 5 uM compound, 0.5 mg/ml microsomal protein, 2 mM NADPH, 30 minutes at 37° C.
Experimental: as §1

[3] = Pharmacokinetics in female rats; format: in vivo, rat; conditions: for FR Fp.o.: AUCp.o./AUCi.v.; for Tmax: rat, plasma, po, dose and vehicle per footnote, read-out: FR Tmax hr
Experimental: Rats (male or female, 200-225 g) are prepared with indwelling jugular vein cannula as described by Harms et al., Applied Physiol. 36:391-398 (1974), and allowed to recover overnight with free access to the standard vivarium chow and water. […] […] The blood samples are withdrawn at specific times, plasma is immediately separated and compound extracted with ethyl acetate. The samples are analyzed by LC-MS using 30-90% gradient of ACN in 50 mM ammonium acetate.
The pharmacokinetic parameters are calculated using WinNonlin software (Scientific Consulting Inc.). The bioavailability is calculated as AUCp.o./AUCi.v., where AUCp.o. and AUCi.v. are areas under the plasma concentration-time curve after oral and i.v. administration, respectively.

[4] = target: T1, rat GnRH receptor (Rattus norvegicus, UniProt P30969); experiment: Radioligand binding assay: inhibition of binding of 125I-GnRH-A to GnRH receptors (membranes); conditions: competition with 125I-GnRH-A, Ki calculated from IC50 (Cheng et al.)
T1 construct: rat pituitaries (Pel Freez Biologicals, Rogers, Ark.) are homogenized in buffer A; tissue Pel Freez Biologicals; host or cells: rat pituitaries
T1 sequence (P30969 1-327): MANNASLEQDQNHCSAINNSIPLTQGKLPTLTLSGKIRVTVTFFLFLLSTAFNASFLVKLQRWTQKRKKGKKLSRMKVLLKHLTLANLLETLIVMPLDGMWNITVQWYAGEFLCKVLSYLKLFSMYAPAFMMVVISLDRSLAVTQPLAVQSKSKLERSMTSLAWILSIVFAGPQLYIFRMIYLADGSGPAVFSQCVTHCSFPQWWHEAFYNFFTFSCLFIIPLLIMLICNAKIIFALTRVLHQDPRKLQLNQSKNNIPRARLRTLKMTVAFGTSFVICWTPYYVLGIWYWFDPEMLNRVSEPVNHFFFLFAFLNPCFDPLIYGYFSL
Summary of the method: (§2)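 Membranes from HEK 293 expressing mouse or human receptor, or rat pituitaries, incubated 1 h at RT with ~0.04–0.06 nM ¹²⁵I-[des-Gly¹⁰,D-Ala⁶]GnRH ethylamide and competitor (0.1–10,000 nM) in HEPES pH 7.4 with MgCl2, EDTA, BSA. Filtration onto PEI-soaked GF/C filters, scintillation counting; Ki from IC50 by Cheng–Prusoff.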

[5] = target: T2, mouse GnRH receptors (Mus musculus, UniProt Q01776); experiment: as above; conditions: Mouse GnRH receptor; competition with 125I-GnRH-A; Ki calculated from IC50 (Cheng et al.)
T2 construct: expressed in transfected cells; host or cells: HEK 293
T2 sequence (Q01776 1-327): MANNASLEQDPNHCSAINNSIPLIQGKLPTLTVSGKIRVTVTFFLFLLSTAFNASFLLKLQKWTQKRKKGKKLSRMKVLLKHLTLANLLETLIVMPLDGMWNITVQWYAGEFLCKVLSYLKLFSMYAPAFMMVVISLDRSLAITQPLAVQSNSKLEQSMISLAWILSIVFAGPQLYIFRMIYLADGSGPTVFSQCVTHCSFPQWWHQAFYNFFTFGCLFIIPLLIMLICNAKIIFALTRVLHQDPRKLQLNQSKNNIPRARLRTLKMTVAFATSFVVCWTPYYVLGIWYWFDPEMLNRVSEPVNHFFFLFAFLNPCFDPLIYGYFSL
Summary of the method: as §2

[6] = target: T3, human GnRH receptors (Homo sapiens, UniProt P30968); experiment: as above; conditions: Human GnRH receptor; competition with 125I-GnRH-A; Ki calculated from IC50 (Cheng et al.)
T3 construct: expressed in transfected cells; host or cells: HEK 293
T3 sequence (P30968 1-328): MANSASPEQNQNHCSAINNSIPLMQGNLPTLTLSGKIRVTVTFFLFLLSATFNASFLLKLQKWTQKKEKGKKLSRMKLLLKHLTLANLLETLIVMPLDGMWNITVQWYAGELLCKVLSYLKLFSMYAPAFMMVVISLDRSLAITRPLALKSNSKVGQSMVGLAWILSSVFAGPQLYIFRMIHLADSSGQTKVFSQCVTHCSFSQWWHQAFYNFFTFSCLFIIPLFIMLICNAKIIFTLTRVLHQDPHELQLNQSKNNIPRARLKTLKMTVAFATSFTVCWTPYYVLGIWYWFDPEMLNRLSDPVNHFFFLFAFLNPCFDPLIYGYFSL
Summary of the method: as §2

[7] = In vitro metabolism: disappearance of parent compound in liver microsomes (male rat); format: in vitro ADME; conditions: 5 uM compound, 0.5 mg/ml microsomal protein, 2 mM NADPH, 30 minutes at 37° C.
Experimental: as §1

[8] = 10 mg/kg as 5 mg/ml solution in 10% cremophor 90% saline

| Compound | Fem. t % rem. 30′ [1] [%] | Huma % p. 30′ [2] [%] | FR Fp.o. [3, 8] [%^3] | Ki [4] [nM] | Ki [5] [nM] | Ki [6] [nM] | Male t % p. 30′ [7] | FR Fp.o. ([3]; 10 mg/kg as 5 mg/ml solution in 10% DMSO 105 cremophor 80% saline) [%^2] | FR Fp.o. ([3]; 10 mg/kg as 5 mg/ml solution in 10% EtOH 10% cremophor 80% saline) [%^4] | Tmax [3] [h] |
| --- | --- | --- | --- | --- | --- | --- | --- | --- | --- | --- |
| 5-{[-3,5,5,6,8,8-Hexamethyl-5,6,7,8-tetrahydro-2-naphthalenyl]oxy}-N′-(1,3-dimethyl-1H-pyrazolo[3,4-b]pyridin-6-yl)-2-furo hydrazide [Example F1] | 24 | 41 | 5 | 5.2 | 3.5 | 2 | – | – | – | – |
| Cc1cc2c(cc1Cc1ccc(C(=O)NNc3ccc4ccccc4n3)o1)C(C)(C)CCC2(C)C [Example C5, 5-[(3,5,5,8,8-Pentamethyl-5,6,7,8-tetrahydro-2-naphthalenyl)methyl]-N′-(2-quinolinyl]-2-furohydrazide] | – | 52 | – | 12 | 10 | 25 | – | – | – | – |
| Cc1cc2c(cc1Cc1ccc(C(=O)NNc3nc(N)nc(C4CC4)n3)o1)C(C)(C)CCC2(C)C [Example C6, N′-(4-amino-6-cyclopropyl-1,3,5-triazin-2-yl)-5-[(3,5,5,8,8-pentamethyl-5,6,7,8-tetrahydro-2-naphthalenyl)methyl]-2-furohydrazide] | – | 75 | – | 6 | 18 | 42 | 95% | <1 | – | – |
| Cc1cc2c(cc1Cc1ccc(C(=O)NNc3ccc(C(F)(F)F)cn3)o1)C(C)(C)CCC2(C)C [Example C9, 5-[(3,5,5,8,8-Pentamethyl-5,6,7,8-tetrahydro-2-naphthalenyl)methyl]-N′-[5-(trifluoromethyl)-2-pyridinyl]-2-furohydrazide] | 14 | 61 | – | 47 | 30 | 61 | 94% | – | – | – |
| Cc1cc2c(cc1Cc1ccc(C(=O)NNc3cc(C)c4c(C)nn(C)c4n3)o1)C(C)(C)OC2(C)C [Example E1, 5-[(1,1,3,3,6-pentamethyl-1,3-dihydro-2-benzofuran-5-yl)methyl]-N′-(1,3,4-trimethyl-1H-pyrazolo[3,4-b]pyridin-6-yl)-2-furohydrazide] | 27 | 43 | – | 9 | 12 | 4.2 | 96% | – | 57 | 1 |
| CC(=O)c1c(NNC(=O)c2ccc(Cc3cc4c(cc3C)C(C)(C)OC4(C)C)o2)nc2c(c(C)nn2C)c1C [Example E2, N-(5-acetyl-1,3,4-trimethyl-1H-pyrazolo[3,4-b]pyridin-6yl)-5-[(1,1,3,3,6-pentamethyl-1,3-dihydro-2-benzofuran-5-yl)methyl]-2-furohydrazide] | – | 30 | – | – | – | 300 | – | – | – | – |
| Cc1cc(Cl)c(C(C)C)c(Oc2ccc(C(=O)NNc3cc(C)c4c(C)nn(C)c4n3)o2)c1 [Example I3, 5-(3-Chloro-2-isopropyl-5-methylphenoxy)-N′-(1,3,4-trimethyl-1H-pyrazolo[3,40b]pyridin-6-yl)-2-furohydrazide] | – | 43 | – | – | – | 5770 | – | – | – | – |
| COc1cc2c(cc1Oc1ccc(C(=O)NNc3cc(C)c4c(C)nn(C)c4n3)o1)C(C)(C)CC2=O [Example I5, 5-[(6-Methoxy-3,3-dimethyl-1-oxo-2,3-dihydro-1H-inden-5-yl)oxy]-N′-(1,3,4-trimethyl-1H-pyrazolo[3,4-b]pyridin-6-yl)-2-furohydrazide] | – | 58 | – | – | – | 1210 | – | – | – | – |

Second part, the compound after the results:

| Fem. t % rem. 30′ [1] [%] | Huma % p. 30′ [2] [%] | FR Fp.o. [3, 8] [%^3] | Ki [4] [nM] | Ki [5] [nM] | Ki [6] [nM] | Male t % p. 30′ [7] | FR Fp.o. ([3]; 10 mg/kg as 5 mg/ml solution in 10% DMSO 105 cremophor 80% saline) [%^2] | FR Fp.o. ([3]; 10 mg/kg as 5 mg/ml solution in 10% EtOH 10% cremophor 80% saline) [%^4] | Tmax [3] [h] | Compound |
| --- | --- | --- | --- | --- | --- | --- | --- | --- | --- | --- |
| – | – | – | – | – | 450 | 99% and 95% | – | – | 1 | COc1cc(C)c(Cl)c(C)c1Cc1ccc(C(=O)NNc2cc(C)c3c(C)nn(C)c3n2)o1 [Example J1] |
| – | – | 6 | – | – | 550 | – | – | – | 0.5 | Cc1cc(C)c(Cc2ccc(C(=O)NNc3cc(C)c4c(C)nn(C)c4n3)o2)c(C)c1Br [Example J2] |
| – | – | – | 290 | 480 | 170 | – | – | – | – | Cc1cc(C)c(-c2ccccc2)cc1Cc1ccc(C(=O)NNc2cc(C)c3c(C)nn(C)c3n2)o1 [Example J18, 5-[(4,6-dimethyl[1,1′-biphenyl]-3-yl)methyl]-N′-(1,3,4-trimethyl-1H-pyrazolo[3,4-b]pyridin-6-yl)-2-furohydrazide] |
| – | – | – | 230 | 320 | 140 | – | – | – | – | COc1ccc(C(C)(C)C)cc1Cc1ccc(C(=O)NNc2cc(C)c3c(C)nn(C)c3n2)o1 [Example J19, 5-[5-(tert-butyl)-2-methoxybenzyl]-N′-(1,3,4-trimethyl-1H-pyrazolo[3,4-b]pyridin-6-yl)-2-furohydrazide] |
| – | – | – | 660 | 280 | 140 | – | – | – | – | Cc1sc2c(c1Cc1ccc(C(=O)NNc3cc(C)c4c(C)nn(C)c4n3)o1)C(C)(C)CCC2(C)C [Example J23] |
| – | – | – | 1130 | 400 | 130 | – | – | – | – | COc1c(C(C)C)cc(Cl)c(C)c1Cc1ccc(C(=O)NNc2cc(C)c3c(C)nn(C)c3n2)o1 [Example J24, 5-(3-chloro-5-isopropyl-6-methoxy-2-methylbenzyl)-N′-(1,3,4-trimethyl-1H-pyrazolo[3,4-b]pyridin-6-yl)-2-furohydrazide] |
| – | – | – | 245 | 130 | 30 | – | – | – | – | Cc1sc2c(c1Cc1ccc(C(=O)NNc3cc(C)c4c(C)nn(C)c4n3)o1)C(C)(C)CCC2(C)C [Example J28, 5-(2,4,4,7,7-Pentamethyl-4,5,6,7-tetrahydro-benzo[b]thiophen-3-ylmethyl)-furan-2-carboxylic acid N′-(1,3,4-trimethyl-1H-pyrazolo[3,4-b]pyridin-6-yl)-hydrazide] |
| – | – | – | 3.9 | 3.7 | 1.8 | – | – | – | – | Cc1cc2c(cc1Oc1ccc(C(=O)NNc3cc(C)c4c(C)nn(C)c4n3)o1)C(C)(C)C(C)C2(C)C (stereo not drawn) [Example M4, 5-(1,1,2,3,3,6-Hexamethyl-indan-5-yloxy)-furan-2-carboxylic acid N′-(1,3,4-trimethyl-1H-pyrazolo[3,4-b]pyridin-6-yl)-hydrazide] |
| – | – | – | 86 | 22 | 28 | – | – | – | – | Cc1cc2c(cc1Oc1ccc(C(=O)NNc3cc(C)c4c(C)nn(C)c4n3)o1)C(C)(C)OC2 [Example N2, 5-(3,3,6-Trimethyl-1,3-dihydro-isobenzofuran-5-yloxy)-furan-2-carboxylic acid N′-(1,3,4-trimethyl-1H-pyrazolo[3,4-b]pyridin-6-yl)-hydrazide] |
